By melting point is commonly meant the temperature of the solid-liquid transition.

Consider `Nc1nc(-c2ccccc2)c(-c2ccnc(Nc3cccc(CO)c3)n2)s1`, for which the melting point fell in the range of 214 to 215 °C. `CC1COCc2nc3c(N)nc4cc(O)ccc4c3n21` (centres undefined) showed a melting point above 250 °C. The result for `N#Cc1cc(C(N)=O)ccc1Cl` reads 193 °C; that for `CCOC(=O)c1cc2cc(Oc3ccc(S(C)(=O)=O)cc3)cc(OCc3ccccc3)c2[nH]1`, 148 to 149 °C. For the molecule `Cc1cn(-c2ccc3nnc4c(C)nc(CC(C)C)n4c3c2)c(CC(C)C)n1`, the melting point fell in the range of 134 to 136 °C.

As to `Fc1ccc(-c2cc3ccccc3n2-c2ccccc2)cc1`, the melting point was in the range of 126 to 128 °C.

Regarding `Cc1nc(NCc2ccccc2C)c2nc(-c3ccccc3)cc-2[nH]1`, the melting point lay in the range of 277 to 281 °C. `CC(=O)/C(=C(/Br)I)c1ccccc1` showed a melting point of 53 to 55 °C. Then `COC1(OC)C=CC=CC1C1c2cccc(O)c2C(=O)c2c(O)cccc21` (centres undefined), with 152 °C. `O=C(Nc1ccc(C(F)(F)F)cc1)C1=NN(c2ccc(Cl)c(Cl)c2)C(c2ccc(F)cc2)C1` (centres undefined): the melting point was 242 to 243 °C.

Molecule `CSc1ncc(S(=O)(=O)NC(C)(C)C)c(Nc2cccc(C)c2)n1` had a melting point of 178 °C. `CC(C)c1ccc(-c2ccc3c(c2)C=C(C(=O)Nc2ccc(CN(C)C4CCOCC4)cc2)CCS3(=O)=O)cc1`: the melting point was in the range of 240 to 247 °C. Then `COCC(C)(COC)C(=O)O[C@H]1C[C@H](O)C=C2C=C[C@H](C)[C@H](CC[C@@H]3C[C@@H](O)CC(=O)O3)[C@H]21`, with 122 to 123 °C; and `Cc1cc(-c2cc(C(F)(F)F)n3ncc(-c4nc(-c5ccc(S(N)(=O)=O)s5)no4)c3n2)ccc1C(F)(F)F`, with 324 °C. Turning to `COC(=O)Cc1cccc(CNC(=O)C2Cc3ccccc3N2S(=O)(=O)c2ccc(-c3cccc(C(F)(F)F)c3)cc2)c1` (centres undefined), the melting point worked out at 60 °C.

Regarding `COc1ccc(C(=O)Nc2ccccc2)c2c1OCC2CC(=O)OCc1ccccc1` (centres undefined), the melting point lay within 179 to 180 °C. Then `CCCOc1ccc(-c2scc(-c3ccccc3)c2CC(=O)NC(=N)N)cc1`, with 94 to 95 °C; and `Oc1ccc(CNCc2cccc(C(F)(F)F)c2)c2cccnc12`, with 127 to 129 °C.

The molecule `Nc1ccc(-c2ccc(-c3ccc(N)cc3)o2)cc1` had a melting point of 213 to 216 °C. Then `COCc1ncc(C(=O)OC)n1C`, with 74 to 77 °C; and `Oc1ccccc1-c1nc(-c2ccccc2O)n(Cc2ccncc2)n1`, with 197 to 199 °C; and `O=C(NCCCc1ccncc1)N(CCCc1ccccc1)C(c1ccccc1)c1ccccc1`, with 123 to 125 °C.

Molecule `C=CCC12CCN=C1C(Br)Cc1ccc(OC)cc12` (centres undefined) registered a melting point of 112 to 117 °C. As to `CC(C)(C)OC(=O)N(N)Cc1ccc(-c2ccccc2)cc1`, the melting point was 84 to 85 °C.

On to `O=C(NC1(c2cccc(F)c2)CCC1)OCc1ccccc1`, for which the melting point lay within 81 to 82 °C. Then `C=C(C)c1nc2cc3c(cc2[nH]1)NC(=O)C3(C)C`, with 270 to 273 °C; and `CNC(=O)CNc1c(C)cccc1C`, with 52 to 54 °C. The result for `O=C1C=C(Br)C(=O)c2ccccc21` reads 130 to 132 °C.

As for `N#Cc1ccc(CCC2CCC(=O)CC2)cc1`, the melting point was 62.5 to 64.3 °C. As to `NCc1cccc(Nc2n[nH]c3ncnc(Nc4cccc(Cl)c4)c23)c1`, the melting point was 212 to 214 °C. Then `COc1ccc(CCN(C)CCc2ccc(NC(=O)c3cccc4c(=O)c5ccccc5[nH]c34)cc2)cc1OC`, with 180 °C; and `CCOC(=O)COc1ccc(Oc2ccc([N+](=O)[O-])cc2)c(Cl)c1Cl`, with 90 to 91 °C.

`CC1(C)C(=O)C(C(=O)Cc2ccc(Cl)cc2)C(=O)C(C)(C)C1=O` came in with a melting point of 57 to 61 °C. Then `COc1ccccc1SCC(O)CN(C)Cc1cc2c(=O)c(C(=O)NCc3ccc(Cl)cc3)cn(C)c2o1` (centres undefined), with 145 to 147 °C; and `CN1N=CC(=CNCc2ccc(F)cc2F)C1=O`, with 181 to 182 °C.

In the case of `COC(=O)C(=O)c1ccc(OCCOc2ccccc2F)cc1`, the melting point fell in the range of 112 to 113 °C.

With `O=[N+]([O-])c1cc2c(cc1Oc1ccccc1)CCC2`, the melting point is 41 °C. Molecule `CNC(=O)c1ncc2[nH]c3cccc(Oc4ccc(Cl)cc4)c3c2c1COC` came in with a melting point of 236 °C.

In turn, `N#CC(C(=O)Nc1ccon1)C(=O)c1nn(-c2ccccc2)c2c1CSc1ccccc1-2` (centres undefined) had a melting point of 228 to 230 °C.

Consider `CC1N=C(c2ccccn2)c2cc(Br)ccc2NC1=O` (centres undefined), for which the melting point was 227 to 229 °C. Then `COC(=O)CCCCCCCCc1ccc(O)cc1`, with 52 to 54 °C. Molecule `Cn1cnc2cc(NC(=O)c3cc4cc(F)ccc4n3Cc3cccc(F)c3)cnc21` registered a melting point of 235 to 236 °C. Turning to `Fc1cccc2[nH]c(-c3ccccc3)cc12`, the melting point is 65 to 67 °C. Molecule `CNn1c(N(C)C)nn(C(=O)NC2CCCC2)c1=O` returned a melting point of 137 °C.

For the molecule `O=C(NC(=O)c1cccs1)NC1CCN(Cc2c[nH]c3ccccc23)CC1`, the melting point was 231 to 232 °C.

The molecule `C=CCNC(=O)C=Cc1cn(C)nc1[N+](=O)[O-]` gave a melting point of 143 to 146 °C. Then `COc1ccc2c(=O)[nH]c(-c3ccc(OCCO)c(-c4ccc(S(C)=O)cc4)n3)nc2c1` (centres undefined), with 266 to 267 °C. `CCC(=O)NCc1ccc2ccn(C3CCN(CCc4ccc(F)cc4)CC3)c2c1`: the melting point is 141 to 142 °C.

Consider `O=C(NCCn1cncn1)c1ccc(Br)cc1`, for which the melting point is 160 to 162 °C. Turning to `COc1ccc2c(c1)C(c1ccccc1)NN=C2Cc1c(Cl)cncc1Cl` (centres undefined), the melting point lay in the range of 175 to 177 °C. The result for `CC12CCC3c4ccc(OC(=O)c5cccnc5)cc4CCC3C1CCC2OC(=O)c1cccnc1` (centres undefined) reads 148 to 150 °C. The result for `CC1(C)Oc2ccc(CNc3ccc(Cl)cc3)cc2OC1=O` reads 97 to 98 °C; that for `CCCCCNC(=S)NC(=Nc1ccccc1)c1ccccc1`, 157 to 158 °C. The molecule `Oc1cccc2c1OCCCO2` yielded a melting point of 112 to 114 °C. Take `Cc1ccc(Cl)cc1N1CN(C)CN(C)C1=S`: the melting point was 157 to 159 °C. As to `CSC(=NC(=O)OC(C)(C)C)NC(=O)OC(C)(C)C`, the melting point fell in the range of 123 to 124 °C. With `CC1(C)CCCSc2cc(Br)ccc21`, the melting point fell in the range of 81 to 82 °C. `Cn1cc(O)c(=O)c2ccc(Cl)cc21` gave a melting point of 225 to 228 °C. In turn, `O=C(O)c1ccc(-c2nc(NCc3ccc4c(c3)OCO4)c3c4c(oc3n2)CCCC4)cc1` showed a melting point of 205 °C. The result for `CCC(CC)N(Cc1ccc(C#N)cc1F)S(=O)(=O)c1ccc(F)cc1` reads 102 to 104 °C.

On to `N#Cc1cc2c3c(cccc3c1N1CCCCC1)C(=O)N(O)C2=O`, for which the melting point was above 250 °C. `CSc1ncc(CCc2cccnc2)c(=O)[nH]1` came in with a melting point of 191 to 192 °C. As for `CC(C)C(C)NC1=NS(=O)(=O)c2cc(Cl)c(Cl)cc2N1` (centres undefined), the melting point lay within 242 to 250 °C.

Turning to `CC1(C)COC(=O)N1c1nc(-c2cccc(Br)c2)cs1`, the melting point is 142 to 144 °C.

`COC(=O)CCCc1cc2nc(Cl)ccc2n1S(=O)(=O)c1ccc2ncsc2c1` registered a melting point of 55 °C.

On to `N#Cc1ccc2cc(-c3ccc(O)cc3)oc2c1`, for which the melting point lay within 272 to 274 °C. As for `O=C(O)CCCCCCCCCCCNC(=O)CCCCCCCCCCBr`, the melting point is 122 °C.

On to `CN(C)S(=O)(=O)Oc1ccccc1S(N)(=O)=O`, for which the melting point lay in the range of 88 to 89 °C. `CCCC1(C)OC(=O)C(c2ccc(F)cc2)=C1c1ccc(S(C)(=O)=O)cc1` (centres undefined) had a melting point of 112 to 113 °C. Take `Fc1ccc(-c2nc(S)[nH]c2-c2ccncc2)cc1`: the melting point was in the range of 386 to 388 °C. Then `COC(=O)CSc1nc(Nc2ccc(N3CCC(C)CC3)cc2)ncc1[N+](=O)[O-]`, with 180 to 184 °C. Molecule `O=C(O)c1ccc2c(c1)CCc1c(F)cccc1C2=O` gave a melting point of 248 to 250 °C.

In turn, `CCCCCCCCCCCCCCCCSCC(CN)n1nnc(C)n1` (centres undefined) showed a melting point of 82 to 83 °C. Take `O=C1OC(=O)c2c1ccc1ncccc21`: the melting point was in the range of 247 to 250 °C. The molecule `CCOc1cc(OCCCc2cn(-c3ccc(C(F)(F)F)cn3)nc2O)ccc1CCC(=O)OC` gave a melting point of 147 to 148 °C. Then `CCOC(=O)c1cc2c(O)nncc2nc1NC(C)C`, with 219 to 220 °C; and `CN1CCC2(C#N)C(C1)C1CN(C)C2C=C1C(=O)c1ccccc1` (centres undefined), with 120 to 139 °C; and `O=C1N(Cc2ccccn2)c2ccccc2C12COc1ccc3c(c12)OCCO3` (centres undefined), with 132 to 134 °C. Then `CNC(=O)Nc1cccc(C(=S)NC(C)C)c1`, with 175 to 178 °C; and `CN1CCC(N(C)S(=O)(=O)c2ccc(Nc3nccc(Nc4ccc(F)cc4)n3)cc2)CC1`, with 205 to 210 °C; and `O=C(Cc1c[nH]c2ccccc12)N1CCN(C(=O)c2cc(C(F)(F)F)cc(C(F)(F)F)c2)[C@H](Cc2ccccc2)C1`, with 201 to 210 °C.

`CCOC(=O)c1nc(-c2ccsc2)n(-c2cccc(Cl)c2F)c1-c1ccc(F)c(Cl)c1`: the melting point was 207 to 209 °C. Molecule `COc1ccc(CNc2c(NC(C)(C)C)c(=O)c2=O)c(OC)c1` came in with a melting point of 225 to 226 °C. The molecule `O=C1c2cc(Br)cc(Br)c2CCC1n1ccnc1` (centres undefined) showed a melting point of 180 to 184 °C. The result for `CC(C)c1cc(-c2ccc(F)cc2)c(CO)c(C(C)C)n1` reads 88 to 90 °C; that for `CCCCn1c(=O)c(NC(=O)Nc2cc(CO)ccc2C(C)(C)C)c(-c2cccc(OCc3cccnc3)c2)c2cccnc21`, 149 to 150 °C. As to `CCCCn1c(=O)c2cn(S(=O)(=O)c3cc(Cl)c(Cl)s3)nc2n(CCCC)c1=O`, the melting point was 181 to 182 °C. The molecule `O=C(N[C@H](Cc1ccccc1C(F)(F)F)[C@@H](O)c1ccc(F)cc1)c1ccc(F)c2ccccc12` (racemic) yielded a melting point of 200 to 201 °C. In the case of `COc1cc(OC)c2c(c1)OC(C)(C)CC2NNc1ncnc2c1ncn2C1OC(CO)C(O)C1O` (centres undefined), the melting point lay within 111 to 113 °C.

Source of the values: a melting point compilation (Tetko et al.; mined from patent text by program, amines drawn as free bases though some values may be those of a salt).
